Legend:
Type in all cases: in vivo
[1] = system: silverleaf whitefly (Bemisia argentifolii Bellows and Perring); assay: Test A: silverleaf whitefly control on cotton or soybean plants, spray, insect mortality after 13 days; conditions: Bemisia argentifolii, read-out: % Mortality (obs)
Method: (§1) The pest control protection afforded by the mixtures or compositions is not limited, however, to these species. The analysis of enhanced activity between the mixtures or compositions was determined using Colby's equation. The average % mortality data for the test compounds alone were inserted into the Colby's equation. If the observed (obs) average % mortality was higher than “p”, the expected (exp) % mortality, the mixture or composition had enhanced effects. If the observed average % mortality was equal to or lower than the expected mortality, the mixture or composition either had no enhanced effect. For bioassays where insect feeding damage was evaluated, enhanced activity is identified when the observed plant damage is less than the expected plant damage rating; ratings ranged between 0 (no damage) and 10 (dead plant) and each value was converted to a % plant protection. 100−(Obs Plant Damage*10)
For evaluating control of silverleaf whitefly (Bemisia argentifolii Bellows and Perring) through contact and/or systemic means, each test unit consisted of a small open container with a 12- to 14-day-old cotton plant or 5-7 day old soybean plant inside. This was pre-infested by placing test units into cages containing adult whiteflies so that oviposition on the cotton leaves could occur. The adults were removed from the plants with an air-blast nozzle, and the test units were capped. The test units were then stored 2 to 3 days before spraying.
Test compounds were formulated using a solution containing 10% acetone, 90% water and 300 ppm Activator 90@ Spreader Lo-Foam Formula non-ionic surfactant containing alkylarylpolyoxyethylene, free fatty acids, glycols and 2-propanol (Loveland Industries, Inc.) to provide the desired concentration in ppm. Formulated test solutions were then applied in 1 mL volumes through a SUJ2 atomizer nozzle with ⅛ JJ custom body (Spraying Systems Co.) positioned 1.27 cm (0.5 inches) above the top of each test unit.
The results for all experimental compositions in this test were replicated three times. After spraying of the formulated test composition, each test unit was allowed to dry for 1 hour and the cap removed. The test units were held for 13 days in a growth chamber at 28° C. and 50-70% relative humidity.

[2] = system: Western Flower Thrips (Frankliniella occidentalis Pergande); assay: Test B: Western Flower Thrips control on bean plants, plant damage rating converted to % plant protection after 7 days; conditions: for Plant Damage (obs): Table 3a, applied alone
Method: as §1
Thus, a plant given a plant damage rating of 3 out of 10 is equivalent to 70% plant protection In all of these tests, compounds of Formula I are Compounds 1 (Cpd 1), 2 (Cpd2), and 3 (Cpd3) and compounds of Formula II are compounds 4 (Cpd4) and 5 (Cpd 5).
For evaluating control of the Western Flower Thrips (Frankliniella occidentalis Pergande) through contact and/or systemic means, each test unit consisted of a small open container with a 5- to 7-day-old bean (var. Soleil) plant inside.
Test solutions were formulated and sprayed with 3 replications as described for Test A. After spraying, the test units were allowed to dry for 1 hour, 22 to 27 adult thrips were added to each unit and then a black, screened cap was placed on top. The test units were held for 7 days at 25° C. and 45-55% relative humidity. To evaluate the level of plant protection provided by each treatment, each test unit was then visually assessed for plant damage inflicted by insect feeding and rated 0-10, where 0=undamaged and 10=plant is dead; the results are listed in Tables 3a-g.

[3] = system: Potato Leafhopper (Empoasca fabae Harris); assay: Test C: Potato Leafhopper control on bean plants, insect mortality after 6 days; conditions: read-out: % Mortality (obs)
Method: as §1
For evaluating control of Potato Leafhopper (Empoasca fabae Harris) through contact and/or systemic means, each test unit consisted of a small open container with a 5- to 6-day-old Longio bean plant (primary leaves emerged) inside. White sand was added to the top of the soil, and one of the primary leaves was excised prior to application. Test compounds were formulated and sprayed with 3 replications as described for Test A. After spraying, the test units were allowed to dry for 1 hour before they were infested with 5 potato leafhoppers (18- to 21-day-old adults). A black, screened cap was placed on the top of each container. The test units were held for 6 days in a growth chamber at 19-21° C. and 50-70% relative humidity.

[4] = system: cotton melon aphid (Aphis gossypii Glover); assay: Test D: cotton melon aphid control on okra plants, insect mortality after 6 days; conditions: Aphis gossypii, read-out: % Mortality (obs)
Method: The analysis of enhanced activity between the mixtures or compositions was determined using Colby's equation. The average % mortality data for the test compounds alone were inserted into the Colby's equation. If the observed (obs) average % mortality was higher than “p”, the expected (exp) % mortality, the mixture or composition had enhanced effects. If the observed average % mortality was equal to or lower than the expected mortality, the mixture or composition either had no enhanced effect. For bioassays where insect feeding damage was evaluated, enhanced activity is identified when the observed plant damage is less than the expected plant damage rating; ratings ranged between 0 (no damage) and 10 (dead plant) and each value was converted to a % plant protection. 100−(Obs Plant Damage*10)
For evaluating control of cotton melon aphid (Aphis gossypii Glover) through contact and/or systemic means, each test unit consisted of a small open container with a 6- to 7-day-old okra plant inside. This was pre-infested by placing on a leaf of the test plant 30 to 40 aphids on a piece of leaf excised from a culture plant (cut-leaf method). The […] moved onto the test plant as the leaf piece desiccated. After pre-infestation, the soil of the test unit was covered with a layer of sand.
Test compounds were formulated and sprayed as described for Test A. The applications were replicated three times. After spraying of the formulated test compounds, each test unit was allowed to dry for 1 hour and then a black, screened cap was placed on top. […]

[5] = system: diamondback moth (Plutella xylostella L.); assay: Test E: diamondback moth control on mustard plants, contact and/or systemic, plant damage rating after 6 days
Method: as §1
For evaluating control of diamondback moth (Plutella xylostella L.) through contact and/or systemic means, each test unit consisted of a small open container with a 10- to 12-day-old mustard plant inside. Test compounds were formulated and sprayed with 3 replications as described for Test A. After spraying, the test units were allowed to dry for 1 hour before they were infested with 30-50 neonate larvae. A black, screened cap was placed on the top of each container. The test units were held for 6 days in a growth chamber at 24-25° C. and 70% relative humidity. Each test unit was then visually assessed for plant damage and rated 0-10, where 0=undamaged and 10=plant is dead; the results are listed in Tables 6a-b.

| SMILES | mortality at 3 ppm [1] | mortality at 5.5 ppm [1] | Plant Damage (obs) ([2]; 0.08 ppm) | Plant Damage (obs) ([2]; 0.28 ppm) | mortality at 1.75 ppm [3] | mortality at 3.3 ppm [3] | mortality at 0.06 ppm [4] | mortality at 0.12 ppm [4] | Plant Protection (obs) ([5]; Table 6a, 0.013 ppm) | Plant Protection (obs) ([5]; Table 6a, 0.02 ppm) | mortality at 50 ppm [1] | mortality at 250 ppm [1] | pest or weed control at 100 ppm ([2]; Frankliniella occidentalis, 168 h, Table 3d, 100 ppm, read-out: Plant Protection (obs)) | pest or weed control at 250 ppm ([2]; Frankliniella occidentalis, 168 h, Table 3d, 250 ppm, read-out: Plant Protection (obs)) | mortality at 50 ppm [3] | mortality at 250 ppm [3] | mortality at 0.25 ppm ([4]; 120 h) | mortality at 0.85 ppm ([4]; 120 h) | Plant Protection (obs) ([5]; Table 6b, 83.2 ppm) | Plant Protection (obs) ([5]; Table 6b, 150 ppm) |
| --- | --- | --- | --- | --- | --- | --- | --- | --- | --- | --- | --- | --- | --- | --- | --- | --- | --- | --- | --- | --- |
| CNC(=O)c1cc(C#N)cc(C)c1NC(=O)c1cc(Br)nn1-c1ncccc1Cl [Cyantraniliprole, 3-bromo-1-(3-chloro-2-pyridinyl)-N-[4-cyano-2-methyl-6-[(methylamino)carbonyl]phenyl]-1H-pyrazole-5-carboxamide, reference compound] | 29.1% | 61.1% | 6.7% | 43.3% | 13.3% | 28.6% | 21.1% | 45.1% | 73.3 | 20.0 | – | – | – | – | – | – | – | – | – | – |
| CCOC(=O)OC1=C(c2cc(C)ccc2C)C(=O)N[C@]12CC[C@@H](OC)CC2 [Spirotetramat, spirotetramat, reference compound] | – | – | – | – | – | – | – | – | – | – | 2.1% | 34.4% | 53.3% | 73.3% | 28.6% | 73.3% | 21.1% | 45.1% | 73.3 | 80.0 |
